Earlier results, collected in US8455540B2, “Gossypol and apogossypol derivatives, preparation thereof and uses thereof” (Universite du Maine (Le Mans), priority 2007, dated 2013).

What was measured:
various types of cancers = conditions: compared with gossypol (apogossypol = deformylated gossypol)
[1] = system: proteins of the Bcl-2 family; conditions: compared with gossypol (apogossypol = deformylated gossypol)

Q: Which results are given for `Cc1cc2c(C(C)C)c(O)c(O)cc2c(O)c1-c1c(C)cc2c(C(C)C)c(O)c(O)cc2c1O` [apogossypol]?
A: activity on various types of cancers (various types of cancers): fully retains its activity; activity on proteins of the Bcl-2 family [1]: fully retains its activity
